Target: T1, CmNAGase (Chitinolyticbacter meiyuanensis, UniProt A0A7D5C7R1)
T1 construct: full length, 836 residues (2508 bp), no signal peptide predicted, C-terminal His6-tag, pET-28a(+), E. coli BL21(DE3), 92 kDa; native peptides […], […], […]; catalytic D508, E509
Assay: pNP release at […] nm, Lineweaver-Burk
Format: biochemical
Details: 50 mM sodium citrate, pH 5.4, 40 °C, 50-1000 μM substrate

T1 sequence (A0A7D5C7R1 entry or part of it): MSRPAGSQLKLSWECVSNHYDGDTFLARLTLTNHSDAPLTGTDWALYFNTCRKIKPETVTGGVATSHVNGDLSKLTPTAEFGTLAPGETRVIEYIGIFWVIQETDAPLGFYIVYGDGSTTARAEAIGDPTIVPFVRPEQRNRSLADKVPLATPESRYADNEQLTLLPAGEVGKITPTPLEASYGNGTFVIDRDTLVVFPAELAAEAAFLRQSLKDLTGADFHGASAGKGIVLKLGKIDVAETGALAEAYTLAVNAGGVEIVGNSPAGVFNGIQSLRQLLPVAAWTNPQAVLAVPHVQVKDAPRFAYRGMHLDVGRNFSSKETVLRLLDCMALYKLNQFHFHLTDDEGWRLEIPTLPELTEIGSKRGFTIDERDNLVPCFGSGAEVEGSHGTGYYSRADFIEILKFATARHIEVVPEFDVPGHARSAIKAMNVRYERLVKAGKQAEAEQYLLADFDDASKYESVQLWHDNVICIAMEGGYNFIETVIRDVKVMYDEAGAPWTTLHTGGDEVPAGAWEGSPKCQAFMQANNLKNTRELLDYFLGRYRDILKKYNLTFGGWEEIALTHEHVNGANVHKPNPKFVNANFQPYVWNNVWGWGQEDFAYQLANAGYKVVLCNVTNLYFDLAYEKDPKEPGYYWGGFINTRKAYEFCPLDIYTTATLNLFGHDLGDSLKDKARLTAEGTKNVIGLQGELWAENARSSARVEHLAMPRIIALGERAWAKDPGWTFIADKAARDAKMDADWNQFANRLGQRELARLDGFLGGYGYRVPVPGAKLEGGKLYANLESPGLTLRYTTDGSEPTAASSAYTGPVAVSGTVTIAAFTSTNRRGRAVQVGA

Q: Which Km does the source give for CC(=O)N[C@H]1[C@H](Oc2ccc([N+](=O)[O-])cc2)O[C@H](CO)[C@@H](O)[C@@H]1O [pNP-GlcNAc] here?
A: 500 µM

Source: article PMC7324980, “A novel bacterial β-N-acetyl glucosaminidase from Chitinolyticbacter meiyuanensis possessing transglycosylation and reverse hydrolysis activities” (Biotechnology for Biofuels, 2020)
